For data set [1], the target named is T1, human cathepsin L (hCatL) (Homo sapiens, UniProt P07711).
T1 construct: purchased R&D Systems 952-CY-010
As to the kind of experiment: hCatL inhibition assay (Z-Phe-Arg-AMC). To be noted: 15-min pre-incubation; pH 5.5; n = 6. In kind it is biochemical.

Data set [2] can be described thus: in vitro. To be noted: mouse.
For the next data set, the target named is SARS-CoV-2 PL^pro (Severe acute respiratory syndrome coronavirus 2, UniProt P0DTD1). Nature of the data set: biochemical. The following applies: 15-min pre-incubation, one assay in triplicate (n = 3), mean ± SE.
Data set [3] deals with T2, SARS-CoV-2 M^pro (Severe acute respiratory syndrome coronavirus 2, UniProt P0DTD1). As to the kind of experiment: biochemical. To be noted: compound at 10 μM, 15-min pre-incubation, relative to DMSO control, mean ± SE; for % inhibition of SARS-CoV-2 M^pro activity: 10 µM.
For a further data set, the target named is MERS-CoV M^pro (Middle East respiratory syndrome-related coronavirus, UniProt K9N7C7). As to the kind of experiment: biochemical. It counts as biochemical. To be noted: for IC50: n = 6.
Data set [4] addresses T2, SARS-CoV-2 M^pro. It counts as biochemical. To be noted: pre-incubated 30 min at 10-fold IC50 with 100× enzyme, diluted 100-fold to 0.1-fold IC50; monitored 2 h.
Data set [5] in a line: in vitro. The following applies: green monkey.
The target in data set [6] is T2, SARS-CoV-2 M^pro. As to the kind of experiment: biochemical. The following applies: for IC50: 15-min pre-incubation, two independent assays in triplicate (n = 6). It counts as biochemical.
In a further data set the target is SARS-CoV M^pro (Severe acute respiratory syndrome coronavirus, UniProt P0C6X7). As to the kind of experiment: biochemical. In kind it is biochemical. To be noted: for IC50: n = 6.
Data set [7] deals with T2, SARS-CoV-2 M^pro. As to the kind of experiment: biochemical. It counts as biochemical. The following applies: for fold decrease in IC50 with 15-min pre-incubation vs without: SARS-CoV-2 M^pro, 15-min vs 0-min pre-incubation.
Data set [8] addresses T1, human cathepsin L (hCatL). More on the design: method as in PMID 37435731. The following applies: E-64 data reported previously; cited from earlier work.
In a further data set the test system is Vero cells. Further details: method as in PMID 38194508. The following applies: ribavirin data reported previously; cited from earlier work.
The next data set has as its system L929 cells. More on the design: method as in PMID 39072124. The following applies: ribavirin data reported previously; cited from earlier work.
Setting [9] is: 15-min pre-incubation before substrate, value per independent assay (Figure 3, black), read-out: IC50 SARS-CoV-2 M^pro, 15-min pre-incubation.
Setting [10] is: 30-min pre-incubation before substrate, value per independent assay (Figure 3, violet), read-out: IC50 SARS-CoV-2 M^pro, 30-min pre-incubation.
Where [11] appears, read: no pre-incubation before substrate, value per independent assay (Figure 3, teal), read-out: IC50 SARS-CoV-2 M^pro, 0-min pre-incubation.

Where “and” joins values, the source holds several entries; their conditions need not be identical. Identical values can stand only once. Like-named read-outs stand apart in the source and are kept apart here.

T1 sequence (P07711 114-333): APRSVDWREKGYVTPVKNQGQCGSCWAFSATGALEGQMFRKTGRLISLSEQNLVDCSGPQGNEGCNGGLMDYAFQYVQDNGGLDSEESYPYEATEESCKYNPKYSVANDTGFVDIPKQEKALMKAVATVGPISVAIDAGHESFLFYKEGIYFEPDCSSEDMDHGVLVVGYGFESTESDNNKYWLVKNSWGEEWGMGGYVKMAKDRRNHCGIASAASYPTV
MERS-CoV M^pro, sequence (K9N7C7 3248-3553 limits assumed): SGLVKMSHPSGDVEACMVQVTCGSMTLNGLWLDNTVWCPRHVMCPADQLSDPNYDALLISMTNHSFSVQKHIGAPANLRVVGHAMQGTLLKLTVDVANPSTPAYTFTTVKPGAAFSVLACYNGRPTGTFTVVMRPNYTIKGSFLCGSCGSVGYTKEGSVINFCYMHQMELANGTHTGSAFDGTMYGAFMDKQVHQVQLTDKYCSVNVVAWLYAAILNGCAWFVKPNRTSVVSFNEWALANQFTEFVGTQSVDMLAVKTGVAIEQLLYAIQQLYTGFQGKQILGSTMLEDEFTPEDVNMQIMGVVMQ

Regarding `COC(=O)/C=C/C(=O)[C@@H](C)NC(=O)[C@H](Cc1ccccc1)NC(=O)OCc1ccccc1` [Compound 1a], the IC50 in data set [1] was 319 ± 1 nM; against MERS-CoV M^pro, 3790 ± 640 nM; against SARS-CoV-2 M^pro [6] it was 415 ± 18 nM; on SARS-CoV M^pro it was 699 ± 12.5 nM; on SARS-CoV-2 M^pro [7] (setting [9]), 433 nM and 397 nM; on SARS-CoV-2 M^pro [7] (setting [10]), 249 nM and 301 nM. The IC50 at SARS-CoV-2 M^pro [7] (setting [11]) is 1020 nM and 1160 nM. Also, the CC50 at 48 h in “in vitro [2]” came out at 73500 ± 4340 nM; in the data set “in vitro [5]”, 17200 ± 500 nM. In addition, the inhibition at 10 µM on SARS-CoV-2 PL^pro is 0%; against SARS-CoV-2 M^pro [3], over 95%. The “% inhibition of SARS-CoV-2 M^pro activity” value on SARS-CoV-2 M^pro [3] came out at 96.75 ± 1.04%. Moreover, at SARS-CoV-2 M^pro [4], the “inhibition after rapid dilution (reversibility)” value (“inhibition after rapid dilution” for short) was “reversible inhibition”. Further, the “fold decrease in IC50 with 15-min pre-incubation vs without” value (“fold decrease in IC50 … vs without” below) at SARS-CoV-2 M^pro [7] is on record as about 2 fold.

On to `O=C(NC(CCc1ccccc1)C(O)c1cc1=O)C(Cc1ccccc1)NC(=O)N1CCOCC1` (centres unmarked) [Compound 2a], for which the IC50 in data set [1] is 184 ± 3 nM; against MERS-CoV M^pro it was over 10000 nM; against SARS-CoV-2 M^pro [6] it was 8120 ± 40 nM; at SARS-CoV M^pro, over 10000 nM. The inhibition at 10 µM against SARS-CoV-2 PL^pro came out at 5.2 ± 1.23%; at SARS-CoV-2 M^pro [3], 54 ± 1.34%.

`CCOC(=O)C1CCN(C(=O)N[C@@H](CC(C)C)C(=O)N[C@@H](/C=C/S(=O)(=O)c2ccccc2)COc2ccccc2)CC1` [Compound 3a]: the IC50 in data set [1] was 763 ± 79 nM; against MERS-CoV M^pro, over 10000 nM; against SARS-CoV-2 M^pro [6], 16420 ± 90 nM; at SARS-CoV M^pro it was over 10000 nM. Besides, the inhibition at 10 µM at SARS-CoV-2 PL^pro was 1.84 ± 2.85%; on SARS-CoV-2 M^pro [3], 51.5 ± 1.38%.

Consider `O=C(N[C@H](CCc1ccccc1)C(=O)CS(=O)(=O)c1ccccc1)[C@H](Cc1ccccc1)NC(=O)N1CCOCC1` [Compound 4a], for which the IC50 in data set [1] was 10700 ± 240 nM; against MERS-CoV M^pro, over 10000 nM; against SARS-CoV-2 M^pro [6] it was 8720 ± 540 nM; at SARS-CoV M^pro, over 10000 nM. The figures for the inhibition at 10 µM against SARS-CoV-2 PL^pro and at SARS-CoV-2 M^pro [3] were 1.56 ± 4.68% and 52.5 ± 3.61%, respectively.

Consider `C=CC(=O)[C@@H](C)NC(=O)[C@@H](Cc1ccccc1)NC(=O)OCc1ccccc1` [Compound 5a], for which the IC50 in data set [1] is over 10000 nM; against MERS-CoV M^pro, 830 ± 53.5 nM; on SARS-CoV-2 M^pro [6] it was 160 ± 5.8 nM; on SARS-CoV M^pro, 110 ± 17.3 nM; at SARS-CoV-2 M^pro [7] (setting [9]), 154 nM and 166 nM; on SARS-CoV-2 M^pro [7] (setting [10]), 103 nM and 115 nM. In addition, the IC50 at SARS-CoV-2 M^pro [7] (setting [11]) is 757 nM and 708 nM. The “IC50 hCatL” value in data set [1] is “inactive”. The CC50 at 48 h in the data set “in vitro [2]” was 102000 ± 2060 nM; in “in vitro [5]”, 49000 ± 3280 nM. Also, the inhibition at 10 µM at SARS-CoV-2 PL^pro is 6.14 ± 2.42%; against SARS-CoV-2 M^pro [3], over 95%. The “% inhibition of SARS-CoV-2 M^pro activity” value at SARS-CoV-2 M^pro [3] worked out at 100.00 ± 0.00%. Moreover, on MERS-CoV M^pro, the “fold decrease in activity against MERS-CoV M^pro compared to SARS-related M^pro enzymes” value is reported as about 5 fold. In addition, on SARS-CoV-2 M^pro [4], the “inhibition after rapid dilution” value is “reversible inhibition”. Further, the “fold decrease in IC50 … vs without” value at SARS-CoV-2 M^pro [7] was about 4 fold.

For the compound `C=CC(=O)[C@H](C)NC(=O)[C@@H](Cc1ccccc1)NC(=O)OCc1ccccc1` [Compound 5b], the IC50 is over 10000 nM in [1]; 128 ± 6 nM against SARS-CoV-2 M^pro [6]; 73 nM and 73.2 nM against SARS-CoV M^pro; 134 nM and 122 nM at SARS-CoV-2 M^pro [7] (setting [9]); 114 nM and 111 nM on SARS-CoV-2 M^pro [7] (setting [10]); 639 nM and 707 nM on SARS-CoV-2 M^pro [7] (setting [11]). Moreover, the “IC50 hCatL” value in [1] was “inactive”. Moreover, the values for the CC50 at 48 h in “in vitro [2]” and in “in vitro [5]” were 85900 ± 1690 nM and 37500 ± 2140 nM, respectively. On SARS-CoV-2 M^pro [3], the inhibition at 10 µM turned out to be 100%. Besides, the “inhibition after rapid dilution” value at SARS-CoV-2 M^pro [4] is “reversible inhibition”. Also, the “fold less potent than nirmatrelvir, SARS-CoV-2 M^pro IC50” value on SARS-CoV-2 M^pro [6] is given as “approximately 7 fold”. For the same compound, the “fold greater IC50 than nirmatrelvir, SARS-CoV M^pro” value at SARS-CoV M^pro was 2.4 fold. Besides, the “fold decrease in IC50 … vs without” value on SARS-CoV-2 M^pro [7] is recorded as about 4 fold.

With `CC(C)C[C@H](NC(=O)[C@H]1O[C@@H]1C(=O)O)C(=O)NCCCCN=C(N)N` [Compound E-64], the IC50 in data set [8] was 8 ± 1 nM.

As to `NC(=O)c1ncn([C@@H]2O[C@H](CO)[C@@H](O)[C@H]2O)n1` [Ribavirin, ribavirin], the CC50 in the data set on Vero cells and with L929 cells was over 100000 nM throughout.

Values taken from article PMC12624906, “Discovery of benzyl carbamate inhibitors of coronavirus M^pro enzymes from a legacy collection of cysteine protease inhibitors” (Journal of Enzyme Inhibition and Medicinal Chemistry, 2025).
